Reference: patent US5202315A, “Cephalosporin compounds” (Lucky, Ltd., priority 1989, dated 1993)
Values after ≈ are worked out from the molar mass of the structure shown.

Key:
Experiment in all cases: Antibacterial activity, MIC
Assay type in all cases: cell-based
[1] = test system: Pseudomonas aeruginosa ATCC 27853; conditions: ATCC27853, ATCC 27853, agar two-fold dilution, 37° C., 20 hours, read-out: MIC
Outline: (§1)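 MIC by two-fold serial dilution in Mueller-Hinton agar; inoculum 2 μl at 10^7 CFU/ml; 37 °C, 20 h.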

[2] = test system: Pseudomonas aeruginosa ATCC 25619; conditions: ATCC25619, ATCC 25619, agar two-fold dilution, 37° C., 20 hours, read-out: MIC
Outline: as §1

[3] = test system: Escherichia coli ATCC 25922; conditions: ATCC25922, agar two-fold dilution, 37° C., 20 hours
Outline: as §1

[4] = test system: Morganella morganii ATCC 8076h; conditions: ATCC8076H, agar two-fold dilution, 37° C., 20 hours
Outline: as §1

[5] = test system: Streptococcus faecalis ATCC 29212; conditions: Enterococcus faecalis, ATCC29212; ATCC 29212; agar two-fold dilution, 37° C., 20 hours; read-out: MIC
Outline: as §1

[6] = test system: Enterobacter aerogenes ATCC 29751; conditions: Klebsiella aerogenes, ATCC29751; ATCC 29751; agar two-fold dilution, 37° C., 20 hours; read-out: MIC
Outline: as §1

[7] = test system: Shigella sonnei ATCC 11060; conditions: ATCC11060, ATCC 11060, agar two-fold dilution, 37° C., 20 hours, read-out: MIC
Outline: as §1

[8] = test system: Citrobacter freundii ATCC 8090; conditions: ATCC8090, ATCC 8090, agar two-fold dilution, 37° C., 20 hours, read-out: MIC
Outline: as §1

[9] = test system: Klebsiella pneumoniae ATCC 10031; conditions: ATCC10031, ATCC 10031, agar two-fold dilution, 37° C., 20 hours, read-out: MIC
Outline: as §1

[10] = test system: Bacillus cereus ATCC 11778; conditions: ATCC11778, ATCC 11778, agar two-fold dilution, 37° C., 20 hours, read-out: MIC
Outline: as §1

[11] = test system: Shigella flexneri ATCC 11836; conditions: ATCC11836, agar two-fold dilution, 37° C., 20 hours
Outline: as §1

[12] = test system: Staphylococcus epidermidis ATCC 12228; conditions: ATCC12228, ATCC 12228, agar two-fold dilution, 37° C., 20 hours, read-out: MIC
Outline: as §1

[13] = test system: Pseudomonas aeruginosa ATCC 10145; conditions: ATCC10145, ATCC 10145, agar two-fold dilution, 37° C., 20 hours, read-out: MIC
Outline: as §1

[14] = test system: Escherichia coli ATCC 10536; conditions: ATCC10536, agar two-fold dilution, 37° C., 20 hours
Outline: as §1

[15] = test system: Proteus vulgaris ATCC 6059; conditions: ATCC6059, ATCC 6059, agar two-fold dilution, 37° C., 20 hours, read-out: MIC
Outline: as §1

[16] = test system: Bacillus megaterium ATCC 9885; conditions: Priestia megaterium, ATCC9885; ATCC 9885; agar two-fold dilution, 37° C., 20 hours; read-out: MIC
Outline: as §1

[17] = test system: Proteus mirabilis ATCC 25933; conditions: ATCC25933, ATCC 25933, agar two-fold dilution, 37° C., 20 hours, read-out: MIC
Outline: as §1

[18] = test system: Staphylococcus aureus ATCC 6538p; conditions: ATCC6538P, ATCC 6538p, agar two-fold dilution, 37° C., 20 hours, read-out: MIC
Outline: as §1

[19] = test system: Enterobacter cloacae ATCC 27508; conditions: ATCC27508, ATCC 27508, agar two-fold dilution, 37° C., 20 hours, read-out: MIC
Outline: as §1

[20] = test system: Serratia marcescens ATCC 27117; conditions: ATCC27117, ATCC 27117, agar two-fold dilution, 37° C., 20 hours, read-out: MIC
Outline: as §1

[21] = test system: Micrococcus luteus ATCC 9341; conditions: ATCC9341, ATCC 9341, agar two-fold dilution, 37° C., 20 hours, read-out: MIC
Outline: as §1

[22] = test system: Salmonella typhimurium ATCC 14028; conditions: Salmonella enterica; ATCC 14028; agar two-fold dilution, 37° C., 20 hours; read-out: MIC
Outline: as §1

[23] = test system: Staphylococcus aureus ATCC 10537; conditions: ATCC10537, ATCC 10537, agar two-fold dilution, 37° C., 20 hours, read-out: MIC
Outline: as §1

[24] = test system: Acinetobacter calcoaceticus ATCC 15473; conditions: ATCC15473, ATCC 15473, agar two-fold dilution, 37° C., 20 hours, read-out: MIC
Outline: as §1

[25] = test system: Providencia rettgeri ATCC 9250; conditions: ATCC9250, agar two-fold dilution, 37° C., 20 hours
Outline: as §1

| Structure (SMILES) | MIC [1] | MIC [2] | MIC [3] | MIC [4] | MIC [5] | MIC [6] | MIC [7] | MIC [8] | MIC [9] | MIC [10] | MIC [11] | MIC [12] | MIC [13] | MIC [14] | MIC [15] | MIC [16] | MIC [17] | MIC [18] | MIC [19] | MIC [20] | further results |
| --- | --- | --- | --- | --- | --- | --- | --- | --- | --- | --- | --- | --- | --- | --- | --- | --- | --- | --- | --- | --- | --- |
| CCCC[n+]1c(N)cc(N)nc1SCC1=C(C(=O)[O-])N2C(=O)C(NC(=O)/C(=N\OC(C)(C)C(=O)O)c3nsc(N)n3)C2SC1 (stereo not shown) [Compound I-29] | 2 µg/mL (≈ 3 µM) | 4 µg/mL (≈ 6 µM) | 0.25 µg/mL (≈ 0.375 µM) | 0.016 µg/mL (≈ 0.024 µM) | > 128 µg/mL | 1 µg/mL (≈ 1.5 µM) | 0.5 µg/mL (≈ 0.75 µM) | 0.25 µg/mL (≈ 0.375 µM) | 0.13 µg/mL (≈ 0.195 µM) | 128 µg/mL (≈ 192 µM) | 0.13 µg/mL (≈ 0.195 µM) | 8 µg/mL (≈ 12 µM) | 8 µg/mL (≈ 12 µM) | 0.25 µg/mL (≈ 0.375 µM) | 1 µg/mL (≈ 1.5 µM) | 0.25 µg/mL (≈ 0.375 µM) | 1 µg/mL (≈ 1.5 µM) | 8 µg/mL (≈ 12 µM) | 0.063 µg/mL (≈ 0.0945 µM) | 0.5 µg/mL (≈ 0.75 µM) | MIC [21]: 0.5 µg/mL (≈ 0.75 µM); MIC [22]: 0.5 µg/mL (≈ 0.75 µM); MIC [23]: 4 µg/mL (≈ 6 µM); MIC [24]: 32 µg/mL (≈ 48 µM); MIC [25]: ≤ 0.008 µg/mL |
| CC(C)(O/N=C(\C(=O)NC1C(=O)N2C(C(=O)[O-])=C(CSc3nc(N)cc(N)[n+]3-c3ccccc3)CSC12)c1csc(N)n1)C(=O)O (stereo not shown) [Compound I-35] | 2 µg/mL (≈ 2.92 µM) | 2 µg/mL (≈ 2.92 µM) | 0.25 µg/mL (≈ 0.365 µM) | ≤ 0.008 µg/mL | > 128 µg/mL | 0.5 µg/mL (≈ 0.729 µM) | 0.25 µg/mL (≈ 0.365 µM) | 0.25 µg/mL (≈ 0.365 µM) | 0.13 µg/mL (≈ 0.19 µM) | 16 µg/mL (≈ 23.3 µM) | 0.13 µg/mL (≈ 0.19 µM) | 2 µg/mL (≈ 2.92 µM) | 4 µg/mL (≈ 5.83 µM) | 0.25 µg/mL (≈ 0.365 µM) | 0.13 µg/mL (≈ 0.19 µM) | 0.5 µg/mL (≈ 0.729 µM) | 0.25 µg/mL (≈ 0.365 µM) | 4 µg/mL (≈ 5.83 µM) | 0.063 µg/mL (≈ 0.0919 µM) | 0.5 µg/mL (≈ 0.729 µM) | MIC [21]: 0.25 µg/mL (≈ 0.365 µM); MIC [22]: 0.5 µg/mL (≈ 0.729 µM); MIC [23]: 2 µg/mL (≈ 2.92 µM); MIC [24]: 16 µg/mL (≈ 23.3 µM); MIC [25]: 0.031 µg/mL (≈ 0.0452 µM) |
| CC(C)(O/N=C(\C(=O)NC1C(=O)N2C(C(=O)[O-])=C(CSc3nc(N)cc(N)[n+]3-c3ccc(O)cc3)CSC12)c1csc(N)n1)C(=O)O (stereo not shown) [Compound I-36] | 1 µg/mL (≈ 1.42 µM) | 1 µg/mL (≈ 1.42 µM) | 0.25 µg/mL (≈ 0.356 µM) | ≤ 0.008 µg/mL | > 128 µg/mL | 2 µg/mL (≈ 2.85 µM) | 0.25 µg/mL (≈ 0.356 µM) | 0.25 µg/mL (≈ 0.356 µM) | 0.13 µg/mL (≈ 0.185 µM) | 32 µg/mL (≈ 45.6 µM) | 0.063 µg/mL (≈ 0.0898 µM) | 2 µg/mL (≈ 2.85 µM) | 2 µg/mL (≈ 2.85 µM) | 0.25 µg/mL (≈ 0.356 µM) | 0.13 µg/mL (≈ 0.185 µM) | 0.13 µg/mL (≈ 0.185 µM) | 0.13 µg/mL (≈ 0.185 µM) | 4 µg/mL (≈ 5.7 µM) | 0.063 µg/mL (≈ 0.0898 µM) | 0.5 µg/mL (≈ 0.712 µM) | MIC [21]: 0.25 µg/mL (≈ 0.356 µM); MIC [22]: 0.5 µg/mL (≈ 0.712 µM); MIC [23]: 2 µg/mL (≈ 2.85 µM); MIC [24]: 16 µg/mL (≈ 22.8 µM); MIC [25]: ≤ 0.008 µg/mL |
| CCO/N=C(\C(=O)NC1C(=O)N2C(C(=O)[O-])=C(CSc3nc(N)cc(N)[n+]3-c3ccc(Cl)cc3)CSC12)c1csc(N)n1 (stereo not shown) [Compound I-40] | 8 µg/mL (≈ 12.1 µM) | 2 µg/mL (≈ 3.02 µM) | 0.5 µg/mL (≈ 0.755 µM) | 0.016 µg/mL (≈ 0.0242 µM) | 32 µg/mL (≈ 48.3 µM) | 2 µg/mL (≈ 3.02 µM) | 0.5 µg/mL (≈ 0.755 µM) | 1 µg/mL (≈ 1.51 µM) | 0.031 µg/mL (≈ 0.0468 µM) | 16 µg/mL (≈ 24.2 µM) | 0.25 µg/mL (≈ 0.378 µM) | 0.13 µg/mL (≈ 0.196 µM) | 16 µg/mL (≈ 24.2 µM) | 0.5 µg/mL (≈ 0.755 µM) | 0.5 µg/mL (≈ 0.755 µM) | 0.063 µg/mL (≈ 0.0951 µM) | 0.5 µg/mL (≈ 0.755 µM) | 0.5 µg/mL (≈ 0.755 µM) | 0.13 µg/mL (≈ 0.196 µM) | 1 µg/mL (≈ 1.51 µM) | MIC [21]: 0.016 µg/mL (≈ 0.0242 µM); MIC [22]: 2 µg/mL (≈ 3.02 µM); MIC [23]: 0.25 µg/mL (≈ 0.378 µM); MIC [24]: 16 µg/mL (≈ 24.2 µM); MIC [25]: ≤ 0.008 µg/mL |
